Experiment [1] concerns HIV-1 RT mutant resistance test vector M41L-T69SSA-T215Y-L210W-RTV. The experiment is described as follows: Phenotypic susceptibility assay, site directed RTV M41L+T69SSA+L210W+T215Y. The class given is cell-based. To be noted: L210W introduced with M41L+T69SSA+T215Y. On the procedure: (§1) Resistance tests were carried out with resistance test vectors using two host cell types. Resistance test vector viral particles were produced by a first host cell (the resistance test vector host cell) that was prepared by transfecting a packaging host cell with the resistance test vector and the packaging expression vector. The resistance test vector viral particles were then used to infect a second host cell (the target host cell) in which the expression of the indicator gene is measured.
(§2) The resistance test vectors containing a functional luciferase gene cassette were constructed and host cells were transfected with the resistance test vector DNA. The resistant test vectors contained patient-derived reverse transcriptase and protease sequences that were either susceptible or resistant to the antiretroviral agents, such as nucleoside reverse transcriptase inhibitors, non-nucleoside reverse transcriptase inhibitors and protease inhibitors. The resistance test vector viral particles produced by transfecting the resistance test vector DNA into host cells, either in the presence or absence of protease inhibitors, were used to infect target host cells grown either in the absence of NRTI or NNRTI or In the presence of increasing concentrations of the drug. The amount of luciferase activIty produced in infected target host cells in the presence of drug was compared to the amount of luciferase produced in infected target host cells in the absence of drug. […] The IC50 values were determined by plotting percent drug inhibition vs. log 10 drug concentration.
(§3) Host cells were seeded in 10-cm-diameter dishes and were transfected several days after plating with resistance test vector plasmid DNA and the envelope expression vector. […] HIV capsid protein (p24) levels in the harvested cell culture media were determined by an EIA method as described by the manufacturer (SIAC; Frederick, Md.). […] The inhibitory effect of the drug was determined using the following equation: […]

The test system of experiment [2] is patient RTV-757, RTV-844, RTV-937, RTV-964 and RTV-966 (4 or more AZT resistance mutations). The experiment is described as follows: Phenotypic susceptibility assay, patient isolates with AZT resistance-associated mutations. Format: cell-based, HIV-1. How it is done:
In these experiments patient-derived segment(s) corresponding to the HIV protease and reverse transcriptase coding regions were either patient-derived segments amplified by the reverse transcription-polymerase chain reaction method (RT-PCR) using viral RNA isolated from viral particles present in the serum of HIV-infected individuals or were mutants of wild type HIV-1 made by site directed mutagenesis of a parental clone of resistance test vector DNA. Isolation of viral RNA was performed using standard procedures (e.g. RNAgents Total RNA Isolation System, Promega, Madison Wis. or RNAzol, Tel-Test, Friendswood, Tex.). The RT-PCR protocol was divided into two steps. A retroviral reverse transcriptase [e.g. Moloney MuLV reverse transcriptase (Roche Molecular Systems, Inc., Branchburg, N.J.), or avian myeloblastosis virus (AMV) reverse transcriptase, (Boehringer Mannheim, Indianapolis, Ind.)] was used to copy viral RNA into cDNA. […]
Resistance tests were carried out with resistance test vectors using two host cell types. […] The resistance test vector viral particles were then used to infect a second host cell (the target host cell) in which the expression of the indicator gene is measured. […]

For experiment [3], the system named is HIV isolates of 13 ZDV-naive patients. As to conditions: 13 ZDV-naive patients followed for 18 to 22 months on d4T; d4T maximum; ZDV five patients; ddI three subjects; cited from earlier work.
Experiment [4] has as its system HIV-1 RT mutant resistance test vector M41L-A62V-T69SSA-T215Y-L210W-RTV. The experiment is described as follows: Phenotypic susceptibility assay, site directed RTV M41L+A62V+T69SSA+L210W+T215Y. As to conditions: RTV with 41 + 62 + 69 + 210 + 215; 3 replicates. Format: cell-based. On the procedure: as §1, §2, §3

Values joined by “and” are separate entries in the source; they are usually repeats but may differ in a detail not shown here. Equal entries are not always repeated. “Also recorded” adds a separate entry of the source. Where only a bound is given, the exact number is not on record here.

Consider `Cc1cn([C@H]2C[C@H](N=[N+]=[N-])[C@@H](CO)O2)c(=O)[nH]c1=O` [AZT, zidovudine], for which the “effect on susceptibility (words)” value in experiment [1] was “substantial decrease in susceptibility to AZT”.

Consider `Cc1cn([C@H]2C=C[C@@H](CO)O2)c(=O)[nH]c1=O` [d4T, stavudine], for which the fold reduced susceptibility in experiment [2] (four patient viruses with 4 or more AZT resistance mutations (FIG. 6)) is recorded as 3-6 fold. Also, in experiment [2] (patient RTV pools with multiple AZT-resistance mutations), the “susceptibility compared to wild-type control RTV” value is reported as “decrease in susceptibility to d4T; also recorded: significant decreases in susceptibility to d4T”. For the same compound, the “fold decrease in sensitivity” value in experiment [3] is at most 12 fold.

Consider `Nc1ccn([C@H]2CC[C@@H](CO)O2)c(=O)n1` [ddC, zalcitabine], for which, in experiment [4], the “Average fold reduction in susceptibility” value is 2.1 fold and 2.10 fold.

The values are drawn from patent US6489098B1, “Means and methods for monitoring nucleoside reverse transcriptase inhibitor antiretroviral therapy and guiding therapeutic decisions in the treatment of HIV/AIDS” (ViroLogic, Inc., priority 1998, dated 2002).
